For series [1], the target named is T1, rabbit reticulocyte 15-LO (Oryctolagus cuniculus, UniProt P12530).
T1 construct: Fifteen-lipoxygenase was obtained from phenylhydrazine-treated rabbits and purified per the method of Rapoport; from tissue; host or cells: reticulocytes of phenylhydrazine-treated rabbits
T1 sequence (P12530 1-663): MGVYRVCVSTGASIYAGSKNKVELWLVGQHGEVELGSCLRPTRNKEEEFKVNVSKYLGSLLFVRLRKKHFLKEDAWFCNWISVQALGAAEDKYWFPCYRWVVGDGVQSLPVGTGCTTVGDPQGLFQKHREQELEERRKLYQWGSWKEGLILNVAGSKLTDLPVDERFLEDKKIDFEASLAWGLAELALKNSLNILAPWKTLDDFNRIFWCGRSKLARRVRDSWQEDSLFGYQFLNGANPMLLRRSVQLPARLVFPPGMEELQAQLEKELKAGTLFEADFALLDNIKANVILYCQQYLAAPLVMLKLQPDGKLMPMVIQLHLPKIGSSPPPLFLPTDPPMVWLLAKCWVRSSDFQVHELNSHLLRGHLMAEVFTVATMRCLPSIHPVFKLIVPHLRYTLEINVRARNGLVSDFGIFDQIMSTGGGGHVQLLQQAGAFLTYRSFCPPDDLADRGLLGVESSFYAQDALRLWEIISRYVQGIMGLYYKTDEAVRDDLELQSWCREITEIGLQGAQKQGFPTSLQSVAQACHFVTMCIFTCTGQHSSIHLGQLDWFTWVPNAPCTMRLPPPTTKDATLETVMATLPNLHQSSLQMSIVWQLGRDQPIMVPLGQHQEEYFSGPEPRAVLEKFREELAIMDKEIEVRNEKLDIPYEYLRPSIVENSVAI
The series can be described thus: Rabbit Reticulocyte 15-LO Assay (h15LO). The settings on record: Table 2; 2U rabbit reticulocyte 15-LO, 174 μM linoleic acid, 15 minutes at 4° C. Format: biochemical. Summed up:
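Purified rabbit reticulocyte 15-LO (2U) incubated with inhibitor and 174 μM linoleic acid in PBS with 0.2% Na cholate for 15 minutes at 4° C. 13-HPODE quantified by peak area against 13-HODE standard curve; % inhibition relative to uninhibited reaction.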

On to `O=C(Nc1ccccc1)c1cccc(NC(=S)Nc2cc(Cl)cc(Cl)c2)c1` [Example 70, 3-[3-(3,5-Dichlorophenyl)-thioureido]-N-phenyl-benzamide], for which the melting point (commonly the temperature of the solid-liquid transition) lay in the range of 174 to 177 °C. Moreover, the IC50 (usually the concentration needed to halve the response being measured) in series [1] turned out to be 500 nM.
As for `Cc1ccc(C(=O)Nc2ccccc2)cc1NC(=S)Nc1cc(Cl)cc(Cl)c1` [Example 71, 3-[3-(3,5-Dichlorophenyl)-thioureido]-4-methyl-N-phenyl-benzamide], the melting point was in the range of 182 to 184 °C. 526 nM corresponded to half-maximal inhibition in series [1] (IC50).
The corresponding values for `COc1ccc(C(=O)Nc2ccccc2)cc1NC(=S)Nc1ccc(OC)c(OC)c1` [Example 72, 3-[3-(3,4-Dimethoxyphenyl)-thioureido]-4-methoxy-N-phenyl-benzamide] are 170 to 171 °C and 56 nM.
`COc1ccc(C(=O)Nc2ccccc2)cc1NC(=S)Nc1cccc(C#N)c1` [Example 74, 3-[3-(3-Cyanophenyl)-thioureido]-4-methoxy-N-phenyl-benzamide] gave a melting point of 183 to 185 °C. Further, the concentration for half-maximal inhibition (IC50) in series [1] is 14.9 nM.
Consider `COc1ccc(C(=O)Nc2ccccc2)cc1NC(=S)Nc1cccc(C(C)=O)c1` [Example 76, 3-[3-(3-Acetyl-phenyl)-thioureido]-4-methoxy-N-phenyl-benzamide], for which the melting point lay in the range of 176 to 177 °C. In series [1], the half-inhibitory concentration (IC50) amounted to 48 nM.
The corresponding values for `COc1ccc(C(=O)Nc2ccccc2)cc1NC(=S)Nc1ccc(Cl)c([N+](=O)[O-])c1` [Example 77, 3-[3-(4-Chloro-3-nitrophenyl)-thioureido]-4-methoxy-N-phenyl-benzamide] are 174 to 175 °C and 11 nM.
With `COc1ccc(C(=O)Nc2ccccc2)cc1NC(=S)Nc1ccc(F)cc1` [Example 78, 3-[3-(4-Fluorophenyl)-thioureido]-4-methoxy-N-phenyl-benzamide], the melting point was in the range of 182 to 183 °C. The compound further had an IC50 in series [1] of 390 nM.
Compound `COc1ccc(NC(=O)c2ccc(OC)c(NC(=S)Nc3cc(Cl)cc(Cl)c3)c2)cc1` [Example 79, 3-[3-(3,5-Dichlorophenyl)-thioureido]-4-methoxy-N-(4-methoxy-phenyl)-benzamide] displayed a melting point of 175 to 182 °C. This compound also came in with an IC50 in series [1] of 127 nM.
Compound `CCOc1ccc(C(=O)Nc2ccccc2)cc1NC(=S)Nc1cc(Cl)cc(Cl)c1` [Example 80, 3-[3-(3,5-Dichlorophenyl)-thioureido]-4-ethoxy-N-phenyl-benzamide] gave a melting point of 201 to 202 °C. In series [1], this compound gave an IC50 of 39 nM.
Regarding `COc1ccc(C(=O)Nc2ccccc2)cc1NC(=S)Nc1cccnc1` [Example 81, 4-Methoxy-N-phenyl-3-(3-pyridin-3-yl-thioureido)-benzamide], the melting point lay within 178 to 179 °C. Moreover, in series [1], half-maximal inhibition (IC50) was put at 19 nM.
In turn, `COc1ccc(C(=O)Nc2ccccc2)cc1NC(=S)Nc1ccc(S(=O)(=O)O)cc1` [Example 82, 4-[3-(2-Methoxy-5-phenylcarbamoyl-phenyl)-thioureido]-benzenesulfonic Acid] had a melting point of more than 280 °C. This compound also came in with an IC50 in series [1] of 124 nM.
`COc1ccc(NC(=S)Nc2cc(C(=O)Nc3ccccc3)ccc2OC)cc1` [Example 83, 4-Methoxy-3-[3-(4-methoxy-phenyl)-thioureido]-N-phenyl-benzamide]: the melting point is 168 to 169 °C. Also, half-maximal inhibition in series [1] (IC50) required 81 nM.
The compound `COc1ccc(C(=O)Nc2ccccc2)cc1NC(=S)Nc1cccc(C(F)(F)F)c1` [Example 84, 4-Methoxy-N-phenyl-3-[3-(3-trifluoromethyl-phenyl)-thioureido]-benzamide] showed a melting point of 177 to 178 °C. In addition, the 50% inhibitory concentration (IC50) in series [1] turned out to be 20 nM.
`COc1ccc(C(=O)Nc2ccccc2)cc1NC(=S)Nc1ccc(Cl)c(Cl)c1` [Example 85, 3-[3-(3,4-Dichlorophenyl)-thioureido]-4-methoxy-N-phenyl-benzamide] gave a melting point of 174 to 175 °C. The same compound gave a 50% inhibitory concentration (IC50) in series [1] of 20 nM.
`COc1ccc(NC(=O)Nc2ccccc2)cc1NC(=S)Nc1cc(Cl)cc(Cl)c1` [Example 86, 1-{3-[3-(3,5-Dichlorophenyl)-thioureido]-4-methoxyphenyl}-3-phenyl-urea] showed a melting point of 218 to 219 °C. The compound also came in with an IC50 in series [1] of 260 nM.
Turning to `COc1ccc(NC(=O)c2ccccc2)cc1NC(=S)Nc1cc(Cl)cc(Cl)c1` [Example 87, N-{^3-[^3-(3,5-Dichlorophenyl)-thioureido]-4-methoxy-phenyl}-benzamide], the melting point lay within 194 to 195 °C. The compound further gave a concentration for half-maximal inhibition (IC50) in series [1] of 102 nM.
Turning to `COc1ccc(C(=O)Nc2ccccc2)cc1NC(=S)Nc1ccc([N+](=O)[O-])cc1` [Example 88, 4-Methoxy-3-[3-(4-nitrophenyl)-thioureido]-N-phenyl-benzamide], the melting point lay in the range of 183 to 184 °C. In series [1], this compound had a 50% inhibitory concentration (IC50) of 33 nM.
`COc1ccc(C(=O)Nc2ccccc2)cc1NC(=S)Nc1cc(C(F)(F)F)cc(C(F)(F)F)c1` [Example 89, 3-[3-(3,5-Bis-trifluoromethylphenyl)-thioureido]-4-methoxy-N-phenyl-benzamide] had a melting point of 192 to 193 °C. In series [1], this compound showed an IC50 of 35 nM.
In turn, `COc1ccc(C(=O)Nc2ccccc2)cc1NC(=S)Nc1ccc(S(N)(=O)=O)cc1` [Example 90, 4-Methoxy-N-phenyl-3-[3-(4-sulfamoyl-phenyl)-thioureido]-benzamide] returned a melting point of 193 to 195 °C. Besides, in series [1], the 50% inhibitory concentration (IC50) is 24 nM.
The corresponding values for `COc1ccc(C(=O)Nc2ccc(Cl)cc2)cc1NC(=S)Nc1cc(Cl)cc(Cl)c1` [Example 92, N-(4-Chlorophenyl)-3-[3-(3,5-dichlorophenyl)-thioureido]-4-methoxy-benzamide] are 180 to 185 °C and 17 nM.
On to `COc1ccc(C(=O)Nc2ccccc2)cc1NC(=S)Nc1ccc(N(C)C)cc1` [Example 93, 3-[3-(4-Dimethylaminophenyl)-thioureido]-4-methoxy-N-phenyl-benzamide], for which the melting point is 179 to 180 °C. In series [1], this compound yielded an IC50 of 82 nM.
The corresponding values for `COc1ccc(C(=O)Nc2ccc(C)cc2)cc1NC(=S)Nc1cc(Cl)cc(Cl)c1` [Example 94, 3-[3-(3,5-Dichlorophenyl)-thioureido]-4-methoxy-N-p-tolyl-benzamide] are 178 to 180 °C and 42 nM.
The corresponding values for `COc1ccc(C(=O)Nc2ccccc2)cc1NC(=S)Nc1cccc(C)c1` [Example 95, 4-Methoxy-N-phenyl-3-(3-m-tolyl-thioureido)-benzamide] are 168 to 171 °C and 11 nM.
`O=C(Nc1ccccc1)c1ccc(F)c(NC(=S)Nc2cc(Cl)cc(Cl)c2)c1` [Example 96, 3-[3-(3,5-Dichlorophenyl)-thioureido]-4-fluoro-N-phenyl-benzamide] yielded a melting point of 173 to 175 °C. In series [1], this compound showed an IC50 of 46 nM.
`COc1ccc(C(=O)Nc2ccc(Cl)c(Cl)c2)cc1NC(=S)Nc1cc(Cl)cc(Cl)c1` [Example 97, N-(3,4-Dichlorophenyl)-3-[3-(3,5-dichlorophenyl)-thioureido]-4-methoxy-benzamide] had a melting point of 189 to 191 °C. This compound returned a concentration for half-maximal inhibition (IC50) in series [1] of 19 nM.
`COc1ccc(C(=O)Nc2ccccc2)cc1NC(=S)Nc1ccccc1C` [Example 98, 4-Methoxy-N-phenyl-3-(3-o-tolyl-thioureido)-benzamide] had a melting point of 172 to 174 °C. The half-maximal inhibitory concentration (IC50) in series [1] was determined as 1000 nM.
The compound `COc1ccc(C(=O)Nc2ccccc2)cc1NC(=S)Nc1cc(C)cc(C)c1` [Example 99, 3-[3-(3,5-Dimethylphenyl)-thioureido]-4-methoxy-N-phenyl-benzamide] came in with a melting point of 203 to 205 °C. Inhibition in series [1] was half-maximal at 11 nM (IC50).
With `COc1ccc(C(=O)Nc2ccc(C)c(C)c2)cc1NC(=S)Nc1cccc(C)c1` [Example 102, N-(3,4-Dimethylphenyl)-4-methoxy-3-(3-m-tolyl-thioureido)-benzamide], the melting point was 155 to 160 °C. In series [1], this compound showed an IC50 of 170 nM.
Compound `COc1ccc(C(=O)Nc2ccc(C)c(Cl)c2)cc1NC(=S)Nc1cc(Cl)cc(Cl)c1` [Example 104, N-(3-Chloro-4-methylphenyl)-3-[3-(3,5-dichlorophenyl)-thioureido]-4-methoxy-benzamide] had a melting point of 195 to 196 °C. Inhibition in series [1] was half-maximal at 13 nM (IC50).
Take `COc1ccc(C(=O)Nc2ccc(Cl)c(Cl)c2)cc1NC(=S)Nc1ccc(S(N)(=O)=O)cc1` [Example 105, N-(3,4-Dichlorophenyl)-4-methoxy-3-[3-(4-sulfamoyl-phenyl)-thioureido]-benzamide]: the melting point was in the range of 190 to 193 °C. The half-maximal inhibitory concentration (IC50) in series [1] amounted to 14 nM.

Source of the values: US6528528B2 (Warner-Lambert Company, priority 1997, dated 2003).
